Source: patent US10897891B2, “Compositions and methods for prolonged cell storage” (Board of Regents, The University of Texas System, priority 2015, dated 2021)
Values joined by “and” are separate entries in the source; they are usually repeats but may differ in a detail not shown here. Equal entries are not always repeated.

System: stored human platelets in thrombocytopenic CD-1 outbred mice
Assay: Platelet storage vs platelet function in a mouse model of thrombocytopenia (tail vein bleeding, blotter weight)
Format: in vivo
Details: for Weight of blood after tail vein cut, single animals: 1% PEG-400 in PBS, platelets stored at room temp.
Procedure: Fresh human platelets were obtained from the blood bank. These were pooled, mixed and divided twice to give 4 (new) platelet bags with 65 ml (+/−5 ml) in each. Next sterile PBS/PEG mixtures were made by adding filter sterilized PEG-400 (30% in PBS) serially diluting 1:4. (14 ml PBS+6 ml of PEG400=30% PEG, serially 1:4 diluted with PBS to give 7.5% PEG400, and 1.9% PEG400). Then, 10 ml of PBS or PBS/PEG was added into each platelet bag as follows: 10 ml PBS is 0 control=A; 10 ml of 1.9 is 0.25% peg final in platelets (a low dose tolerated by whole animal see below)=B; 10 ml of 7.5% gives 1% PEG-400 final (the max PEG400 dose tolerated by whole animal see below), =C; 10 ml of 30% gives 4% about 4 times the max dose tolerated in rhesus monkeys. Units were held at room temp 70 cycles/min, 1 inch stroke). The platelet units were confirmed to be negative for bacterial growth using 3 ml the platelet suspensions in Bactec blood culture bottles at 72 hr.
CD-1 outbred mice were obtained from Harlan Laboratories. All animals were pretreated with a 0.5 ml IP dose of 185 ug/mouse of filter sterilized fresh acetylsalicylic acid (aspirin) in PBS buffer. Fresh aspirin was used. Salicylate is the active metabolite responsible for most anti-inflammatory and analgesic effects; however, acetylsalicylate is the active moiety for the antiplatelet-aggregation effect and is rapidly hydrolyzed in water. On the following day all mice were given 3 U (heparin equivalents)/animal Lovenox (Enoxaparin Sodium Injection). After a 2 hr period for Lovenox to take full effect, the animals were given 100 ul platelets by IV tail vein injection, the platelets were allowed to circulate […] and the tail vein cut 1 cm from the tip with a new scapula for each animal. Bleeding was measured by collecting drops of blood for exactly 5 min on pre-weighed blotter paper Whatmen-40. The blotters were then weighed and these weights were compared using unpaired t test statistics. Platelets having an excessive amount of RBC in the units were sedimented under gravity in a 50 ml tube for 30 min and only the top 5 ml was harvested into a second 50 ml tube used for injection.)
Briefly, the animal model experiments were performed as follows. Fresh human platelets were obtained from a blood bank, consisting of 3 ABO ‘O’ units and 2 ABO ‘A’ units. These were pooled, mixed and divided twice to give 4 (new) platelet bags with 75 ml (+/−5 ml) in each. Next sterile PBS/PEG mixtures were made by adding filter sterilized PEG-400 (30% in PBS) serially diluting 1:4. (14 ml PBS+6 ml of PEG=30% PEG, serial ¼ diluted with PBS to give 7.5% PEG, and 1.9% PEG400). 10 ml of PBS or PBS/PEG was then added to each platelet bag as follows. […] Units were held at room temp 140 cycles/min, 0.5 inch stroke). The platelet units were confirmed as negative for bacterial growth using 3 ml in Bactec blood culture bottles at 72 hr.
CD-1 outbred mice were obtained from Harlan Laboratories. All animals were pretreated with a 0.5 ml IP dose of 185 μg/mouse of filter sterilized fresh acetylsalicylic acid in PBS buffer. On the following day all mice were given 3 U (heparin equivalents)/animal Lovenox. (Note: Aspirin was fresh. Salicylate is the active metabolite responsible for most anti-inflammatory and analgesic effects; however, acetylsalicylate is the active moiety for the antiplatelet-aggregation effect and is rapidly hydrolyzed in water. After a 2 hr period for Lovenox effect the animals were given 100 ul platelets by IV tail vein injection, the platelets were allowed to circulate 30 min and the tail vein cut 1 cm from tip with a new scapula for each animal. Bleeding was measured by collecting drops of blood for exactly 5 min on pre-weighed blotter paper Whatmen-40. The blotters were then weighed and these weights were compared using unpaired t test statistics. […]

Polyethylene glycol [PEG-400]
Weight of blood after tail vein cut, mean (X) of combined data (1% PEG-400, room temp. storage 11-13 days, N = 9): X = 0.043 grams
activity of stored platelets (1% PEG-400, room temp. storage, day 11-13): active
clotting vs standard platelet storage condition (1% PEG-400, room temp., combined day 11 and day 13 data): significantly more clotting
Weight of blood after tail vein cut, single animals (Mar. 11, 2014 group): .06 grams and .04 grams and .05 grams
Weight of blood after tail vein cut, single animals (Mar. 13, 2014 group): .05 grams and .03 grams and .02 grams
Weight of blood after tail vein cut, single animals (May 23, 2014 group): .04 grams (2×) and .06 grams
